SMILES strings stand for the structures.

The subject of the assay is SU-DHL-4 cell line. Briefly: SU-DHL-4 cell proliferation assay (Cell Titer-Glo viability). The assay is classed as cell-based. The conditions noted are these: Homo sapiens; cell viability IC50 activity level, DLBCL cell line SU-DHL-4, 120 hours post-treatment; read-out: SU-DHL-4 Act. The gist of the method: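 Viability read by ATP luminescence (Cell Titer-Glo) at the start and after 120 h of growth at 37°C in 5% CO2. DLBCL cells were seeded at 500 per well with compound across 0.5 nM–10 μM in 20 points, 0.1% DMSO. A four-parameter sigmoidal fit gave IC50 as 50% of DMSO control.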
Background: Cellular ATP, detected with luciferase, serves as a proxy for viable cell number.
For `Cc1cc(CNc2cccc3c2C(=O)N(C2CCC(=O)NC2=O)C3=O)ccc1CN1CC(c2ccc(C#N)cc2)C1` (centres unmarked) [Cpd 51, 4-(1-(4-((2-(2,6-dioxopiperidin-3-yl)-1,3-dioxoisoindolin-4-ylamino)methyl)-2-methylbenzyl)aetidin-3-yl)benzonitrile], the IC50 was under 200 nM.

In the case of `Cc1cc(CNc2cccc3c2C(=O)N(C2CCC(=O)NC2=O)C3=O)ccc1CN1CC(c2cccc(C#N)c2)C1` (centres unmarked) [Cpd 52, 3-(1-(4-((2-(2,6-dioxopiperidin-3-yl)-1,3-dioxoisoindolin-4-ylamino)methyl)-2-mtehylbenzyl)azetidin-3-yl)benzonitrile], the IC50 was under 200 nM.

As for `C[C@@H]1CN(c2ccc(C#N)cn2)CCN1Cc1ccc(CNc2cccc3c2C(=O)N(C2CCC(=O)NC2=O)C3=O)cc1` (stereo partly drawn) [Cpd 53, 6-((3R)-4-(4-((2-(2,6-dioxopiperidin-3-yl)-1,3-dioxoisoindolin-4-ylamino)methyl)benzyl)-3-methylpiperazin-1-yl)nicotinonitrile], the IC50 was under 200 nM.

In the case of `NC(=O)c1ccc(N2CCN(Cc3ccc(CNc4cccc5c4C(=O)N(C4CCC(=O)NC4=O)C5=O)cc3)CC2)nc1` (centres unmarked) [Cpd 54, 6-(4-(4-((2-(2,6-dioxopiperidin-3-yl)-1,3-dioxoisoindolin-4-ylamino)methyl)benzyl)piperazin-1-yl)nicotinamide], the IC50 is 200 to 500 nM.

With `CN(C)C(=O)c1ccc(N2CCN(Cc3ccc(CNc4cccc5c4C(=O)N(C4CCC(=O)NC4=O)C5=O)cc3)CC2)cn1` (centres unmarked) [Cpd 55, 5-(4-(4-((2-(2,6-dioxopiperidin-3-yl)-1,3-dioxoisoindolin-4-ylamino)methyl)benzyl)piperazin-1-yl)-N,N-dimethylpicolinamide], the IC50 lay within 200 to 500 nM.

Turning to `Cc1cc(CNc2cccc3c2C(=O)N(C2CCC(=O)NC2=O)C3=O)ccc1CN1CCC(n2cccn2)CC1` (centres unmarked) [Cpd 56, 4-(4-((4-(1H-pyrazol-1-yl)piperidin-1-yl)methyl)-3-methylbenzylamino)-2-(2,6-dioxopiperidin-3-yl)isoindoline-1,3-dione], the IC50 was under 200 nM.

Regarding `NC(=O)c1ccc(N2CCN(Cc3ccc(CNc4cccc5c4C(=O)N(C4CCC(=O)NC4=O)C5=O)cc3)CC2)cc1` (centres unmarked) [Cpd 57, 4-(4-(4-((2-(2,6-dioxopiperidin-3-yl)-1,3-dioxoisoindolin-4-ylamino)methyl)benzyl)piperazin-1-yl)benzamide], the IC50 was under 200 nM.

`NC(=O)c1ccc(N2CCN(Cc3ccc(CNc4cccc5c4C(=O)N([C@H]4CCC(=O)NC4=O)C5=O)cc3)CC2)cn1` [Cpd 58, (S)-5-(4-(4-((2-(2,6-dioxopiperidin-3-yl)-1,3-dioxoisoindolin-4-ylamino)methyl)benzyl)piperazin-1-yl)picolinamide]: the IC50 was under 200 nM.

As to `Cc1cc(CNc2cccc3c2C(=O)N(C2CCC(=O)NC2=O)C3=O)ccc1CN1CCN(c2ccc(C#N)cc2C)CC1` (centres unmarked) [Cpd 60, 4-(4-(4-((2-(2,6-dioxopiperidin-3-yl)-1,3-dioxoisoindolin-4-ylamino)methyl)-2-methylbenzyl)piperazin-1-yl)-3-methylbenzonitrile], the IC50 was under 200 nM.

Turning to `Cc1cc(CNc2cccc3c2C(=O)N(C2CCC(=O)NC2=O)C3=O)ccc1CN1CCN(c2ccc(C#N)cc2Cl)CC1` (centres unmarked) [Cpd 61, 3-chloro-4-(4-(4-((2-(2,6-dioxopiperidin-3-yl)-1,3-dioxoisoindolin-4-ylamino)methyl)-2-methylbenzyl)piperazin-1-yl)benzonitrile], the IC50 is under 200 nM.

As to `C[C@@H]1CN(c2ccc(C#N)cc2Cl)CCN1Cc1ccc(CNc2cccc3c2C(=O)N(C2CCC(=O)NC2=O)C3=O)cc1` (stereo partly drawn) [Cpd 62, 3-chloro-4-((3R)-4-(4-((2-(2,6-dioxopiperidin-3-yl)-1,3-dioxoisoindolin-4-ylamino)methyl)benzyl)-3-methylpiperazin-1-yl)benzonitrile], the IC50 is under 200 nM.

Source of the values: patent US11358952B2, “Substituted 4-aminoisoindoline-1,3-dione compounds, compositions thereof, and methods of treatment therewith” (Celgene Corporation, priority 2018, dated 2022).
